From PubChem BioAssay AID248 (DTP/NCI, 2004)
Values joined by “and” are separate entries in the source; they are usually repeats but may differ in a detail not shown here. Identical values can stand only once. Toxic doses and inconclusive results are not listed. Cut-off read from the data, not from the text of the source: active = T/C of 150% or more; inactive = T/C below 125%.

System: L1210 leukemia ip in BDF1 mice, survival T/C
Assay: NCI In Vivo Anticancer Drug Screen. Data for tumor model L1210 Leukemia (intraperitoneal) in B6D2F1 (BDF1) mice
Details: higher = longer survival
Procedure, shortened: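 Value reflects the ratio of survival in compound-treated mice to survival in vehicle-treated controls, with both groups carrying the same transplanted tumor.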

[1] = endpoint: mean survival time, dose: 100.0 mg/kg/injection, schedule: Q04DX003 (ip), vehicle: saline with Tween-80
[2] = endpoint: mean survival time, dose: 200.0 mg/kg/injection, schedule: Q04DX003 (ip), vehicle: saline with Tween-80
[3] = endpoint: mean survival time, dose: 400.0 mg/kg/injection, schedule: Q04DX003 (ip), vehicle: saline with Tween-80
[4] = endpoint: mean survival time, dose: 100.0 mg/kg/injection, schedule: Q04DX003 (ip), vehicle: Klucel (hydroxypropylcellulose) (HPC)
[5] = endpoint: mean survival time, dose: 200.0 mg/kg/injection, schedule: Q04DX003 (ip), vehicle: Klucel (hydroxypropylcellulose) (HPC)
[6] = endpoint: mean survival time, dose: 400.0 mg/kg/injection, schedule: Q04DX003 (ip), vehicle: Klucel (hydroxypropylcellulose) (HPC)
[7] = endpoint: mean survival time, dose: 100.0 mg/kg/injection, schedule: Q01DX009 (ip), vehicle: Klucel (hydroxypropylcellulose) (HPC)
[8] = endpoint: mean survival time, dose: 100.0 mg/kg/injection, schedule: Q04DX003 (ip), vehicle: saline
[9] = endpoint: mean survival time, dose: 200.0 mg/kg/injection, schedule: Q01DX009 (ip), vehicle: Klucel (hydroxypropylcellulose) (HPC)
[10] = endpoint: mean survival time, dose: 200.0 mg/kg/injection, schedule: Q04DX003 (ip), vehicle: saline
[11] = endpoint: mean survival time, dose: 400.0 mg/kg/injection, schedule: Q01DX009 (ip), vehicle: Klucel (hydroxypropylcellulose) (HPC)
[12] = endpoint: mean survival time, dose: 400.0 mg/kg/injection, schedule: Q04DX003 (ip), vehicle: saline
[13] = endpoint: mean survival time, dose: 100.0 mg/kg/injection, schedule: Q01DX001 (ip), vehicle: carboxymethylcellulose (CMC)
[14] = endpoint: mean survival time, dose: 200.0 mg/kg/injection, schedule: Q01DX001 (ip), vehicle: carboxymethylcellulose (CMC)
[15] = endpoint: mean survival time, dose: 400.0 mg/kg/injection, schedule: Q01DX001 (ip), vehicle: carboxymethylcellulose (CMC)
[16] = endpoint: mean survival time, dose: 50.0 mg/kg/injection, schedule: Q04DX002 (ip), vehicle: saline
[17] = endpoint: mean survival time, dose: 75.0 mg/kg/injection, schedule: Q01DX001 (ip), vehicle: carboxymethylcellulose (CMC)
[18] = endpoint: mean survival time, dose: 150.0 mg/kg/injection, schedule: Q01DX001 (ip), vehicle: carboxymethylcellulose (CMC)
[19] = endpoint: mean survival time, dose: 25.0 mg/kg/injection, schedule: Q04DX003 (ip), vehicle: saline with Tween-80
[20] = endpoint: mean survival time, dose: 50.0 mg/kg/injection, schedule: Q04DX003 (ip), vehicle: saline with Tween-80
[21] = endpoint: mean survival time, dose: 100.0 mg/kg/injection, schedule: Q01DX009 (ip), vehicle: saline with Tween-80
[22] = endpoint: mean survival time, dose: 200.0 mg/kg/injection, schedule: Q01DX009 (ip), vehicle: saline with Tween-80
[23] = endpoint: mean survival time, dose: 400.0 mg/kg/injection, schedule: Q01DX009 (ip), vehicle: saline with Tween-80

Measured: T/C

COC(=O)CC[C@@H](C)[C@H]1CC[C@H]2[C@@H]3CC[C@@H]4C[C@H](O)CC[C@]4(C)[C@H]3CC[C@]12C
inactive: endpoint: mean survival time, dose: 100.0 mg/kg/injection, schedule: Q01DX009 (sc), vehicle: olive oil, sesame oil, peanut oil 107 % of control | endpoint: mean survival time, dose: 200.0 mg/kg/injection, schedule: Q01DX009 (sc), vehicle: olive oil, sesame oil, peanut oil 102 % of control | endpoint: mean survival time, dose: 400.0 mg/kg/injection, schedule: Q01DX009 (sc), vehicle: olive oil, sesame oil, peanut oil 95 % of control

Nc1nc(N)c(-c2ccc(Cl)cc2)c(CNc2ccc([N+](=O)[O-])cc2)n1
inactive: [1] 109 % of control | [2] 95 % of control | [3] 95 % of control

Cc1cc(Cl)c(Cl)cc1NC(=O)Nc1ccccc1F
inactive: endpoint: mean survival time, dose: 100.0 mg/kg/injection, schedule: Q01DX009 (ip), vehicle: other 89 % of control and 92 % of control | endpoint: mean survival time, dose: 200.0 mg/kg/injection, schedule: Q01DX009 (ip), vehicle: other 89 % of control | endpoint: mean survival time, dose: 400.0 mg/kg/injection, schedule: Q01DX009 (ip), vehicle: other 98 % of control and 90 % of control

Cc1cc(C)c(C)c(NCCCS(=O)(=O)O)c1C
inactive: [4] 98 % of control | [5] 102 % of control | [6] 100 % of control

O=C(NCSC1=NCCS1)NCSC1=NCCS1
inactive: [7] 107 % of control | [8] 97 % of control | [9] 92 % of control | [10] 114 % of control | [11] 96 % of control | [12] 97 % of control

O=C(O)C(Cc1cccs1)c1ccccc1 (stereo not drawn)
inactive: endpoint: mean survival time, dose: 50.0 mg/kg/injection, schedule: Q04DX003 (ip), vehicle: carboxymethylcellulose (CMC) 98 % of control | endpoint: mean survival time, dose: 100.0 mg/kg/injection, schedule: Q04DX003 (ip), vehicle: carboxymethylcellulose (CMC) 106 % of control | endpoint: mean survival time, dose: 200.0 mg/kg/injection, schedule: Q04DX003 (ip), vehicle: carboxymethylcellulose (CMC) 106 % of control

Cc1ccc2sc(C)cc(=O)c2c1
inactive: [13] 100 % of control | [14] 100 % of control | [15] 98 % of control

Cc1cccc(N)n1
inactive: endpoint: mean survival time, dose: 25.0 mg/kg/injection, schedule: Q04DX002 (ip), vehicle: saline 89 % of control | [16] 92 % of control

Cc1cnc(NC#N)nc1-c1ccccc1O
inactive: endpoint: mean survival time, dose: 100.0 mg/kg/injection, schedule: Q04DX002 (ip), vehicle: Klucel (hydroxypropylcellulose) (HPC) 95 % of control | endpoint: mean survival time, dose: 200.0 mg/kg/injection, schedule: Q04DX002 (ip), vehicle: Klucel (hydroxypropylcellulose) (HPC) 98 % of control | endpoint: mean survival time, dose: 400.0 mg/kg/injection, schedule: Q04DX002 (ip), vehicle: Klucel (hydroxypropylcellulose) (HPC) 95 % of control

N#CC1CC2([N+](=O)[O-])c3ccccc3C1c1ccccc12 (stereo not drawn)
inactive: [7] 96 % of control | [4] 105 % of control | [8] 105 % of control | [9] 102 % of control | [5] 108 % of control | [10] 108 % of control | [11] 94 % of control | [6] 102 % of control | [12] 102 % of control

CCCC(CCC)=NCCCO
inactive: [17] 96 % of control | [18] 102 % of control

Cl
inactive: endpoint: mean survival time, dose: 50.0 mg/kg/injection, schedule: Q01DX009 (oral), vehicle: water 97 % of control | endpoint: median survival time, dose: 15.0 mg/kg/injection, schedule: Q01DX009 (ip), vehicle: water 87 % of control | endpoint: median survival time, dose: 30.0 mg/kg/injection, schedule: Q01DX009 (ip), vehicle: water 100 % of control | endpoint: median survival time, dose: 60.0 mg/kg/injection, schedule: Q01DX009 (ip), vehicle: water 112 % of control | endpoint: median survival time, dose: 90.0 mg/kg/injection, schedule: Q01DX009 (ip), vehicle: water 112 % of control

COC(=O)C1C2CC(Br)C(Br)CC21 (stereo not drawn)
inactive: [1] 94 % of control | [2] 94 % of control | [3] 94 % of control

O=S1(=O)CC2C3C=CC(O3)C21 (stereo not drawn)
inactive: [17] 102 % of control | [18] 98 % of control

COc1cccc(/C=C/c2nccc3ccccc23)c1OC
inactive: [7] 90 % of control | [4] 106 % of control | [9] 91 % of control | [5] 98 % of control | [11] 91 % of control | [6] 90 % of control

O=c1oc(-c2ccccc2)nc2c(Cl)ccc(Cl)c12
inactive: endpoint: mean survival time, dose: 25.0 mg/kg/injection, schedule: Q01DX009 (ip), vehicle: Klucel (hydroxypropylcellulose) (HPC) 110 % of control | endpoint: mean survival time, dose: 50.0 mg/kg/injection, schedule: Q01DX009 (ip), vehicle: Klucel (hydroxypropylcellulose) (HPC) 105 % of control | endpoint: mean survival time, dose: 75.0 mg/kg/injection, schedule: Q01DX009 (ip), vehicle: Klucel (hydroxypropylcellulose) (HPC) 102 % of control

O=[N+]([O-])c1ccc(SCc2ccc(Br)cc2)c([N+](=O)[O-])c1
inactive: [13] 98 % of control | [14] 104 % of control | [15] 95 % of control

Cn1cnc(C(N)=S)c1N
inactive: endpoint: mean survival time, dose: 100.0 mg/kg/injection, schedule: Q01DX009 (ip), vehicle: saline 98 % of control | [8] 107 % of control | endpoint: mean survival time, dose: 200.0 mg/kg/injection, schedule: Q01DX009 (ip), vehicle: saline 105 % of control | [10] 102 % of control | endpoint: mean survival time, dose: 400.0 mg/kg/injection, schedule: Q01DX009 (ip), vehicle: saline 96 % of control | [12] 105 % of control

O=S(=O)(/C=C\c1ccccc1)/C=C/c1ccccc1
inactive: [19] 96 % of control | [20] 94 % of control | [1] 92 % of control

O=C(O)C1=CCCC1
inactive: endpoint: mean survival time, dose: 222.0 mg/kg/injection, schedule: Q01DX Z (ip), vehicle: saline 103 % of control | endpoint: mean survival time, dose: 333.0 mg/kg/injection, schedule: Q01DX Z (ip), vehicle: saline 102 % of control | endpoint: mean survival time, dose: 500.0 mg/kg/injection, schedule: Q01DX Z (ip), vehicle: saline 96 % of control

COc1ccc(CCNC(=O)Cc2ccc(OC)c(OC)c2)cc1OC
inactive: endpoint: mean survival time, dose: 12.5 mg/kg/injection, schedule: Q04DX003 (ip), vehicle: saline with Tween-80 94 % of control | [19] 110 % of control | [20] 100 % of control | endpoint: mean survival time, dose: 100.0 mg/kg/injection, schedule: Q01DX001 (ip), vehicle: saline 98 % of control | [7] 94 % of control | endpoint: mean survival time, dose: 100.0 mg/kg/injection, schedule: Q01DX009 (ip), vehicle: saline sonified 100 % of control | [21] 86 % of control | [4] 105 % of control | [1] 107 % of control | endpoint: mean survival time, dose: 200.0 mg/kg/injection, schedule: Q01DX001 (ip), vehicle: saline 92 % of control | [9] 96 % of control | endpoint: mean survival time, dose: 200.0 mg/kg/injection, schedule: Q01DX009 (ip), vehicle: saline sonified 100 % of control | [22] 95 % of control | [5] 112 % of control | [2] 94 % of control | endpoint: mean survival time, dose: 400.0 mg/kg/injection, schedule: Q01DX001 (ip), vehicle: saline 93 % of control | [11] 98 % of control | endpoint: mean survival time, dose: 400.0 mg/kg/injection, schedule: Q01DX009 (ip), vehicle: saline sonified 90 % of control | [23] 91 % of control | [6] 104 % of control | [3] 92 % of control

CCC(=O)OC1(c2ccccc2)CCN(CCC(O)c2ccccc2)CC1C (stereo not drawn)
inactive: endpoint: mean survival time, dose: 20.0 mg/kg/injection, schedule: Q04DX003 (ip), vehicle: Klucel (hydroxypropylcellulose) (HPC) 105 % of control | endpoint: mean survival time, dose: 40.0 mg/kg/injection, schedule: Q04DX003 (ip), vehicle: Klucel (hydroxypropylcellulose) (HPC) 105 % of control

ClC(Cl)(Cl)C1OCOC(C(Cl)(Cl)Cl)O1 (stereo not drawn)
inactive: [1] 98 % of control | [2] 96 % of control | [3] 101 % of control

CN(Cc1ccccc1O)C1CC2CCC1(C)C2(C)C (stereo not drawn)
inactive: [16] 97 % of control | endpoint: mean survival time, dose: 100.0 mg/kg/injection, schedule: Q04DX002 (ip), vehicle: saline 101 % of control

C(=N\n1cnnc1)/c1ccc(/C=N/n2cnnc2)cc1
inactive: [21] 98 % of control | [1] 105 % of control | [22] 88 % of control | [2] 105 % of control | [23] 89 % of control | [3] 98 % of control
